Experimental data reported in patent publication EP4714938A1, “HDAC1/2 SELECTIVE INHIBITOR AND USE THEREOF” (Wigen Biomedicine Technology (Shanghai) Co., Ltd., priority 2023, dated 2024).
Read-outs that look alike come from different tables or passages of the source.

What was measured:
HDAC1 = HDAC1 (Homo sapiens, UniProt Q13547); test: HDAC enzyme inhibitory activity, FRET method; assay type: biochemical; details: read-out: IC50 HDAC1
Experimental: (§1) The compounds of the present disclosure were assayed for enzyme inhibitory activity against various subtypes of HDAC enzymes by the FRET method. The various subtypes of HDAC enzymes were obtained either through purification or direct purchase of assay kits.
(§2) The specific method was as follows: The enzyme was added to a 384-well plate, and a reaction buffer was added to the control well. Serially diluted DMSO sample solutions were added to the reaction wells, and the plate was incubated at room temperature for 15 min. Then a chromogenic agent was added to stop the reaction, and fluorescence was generated. The fluorescence intensity was measured using an EnVision multi-label microplate reader (excitation: 355 nm, emission: 460 nm). The endpoint value was read after the color development reached stability. The inhibition IC50 of the compounds was calculated using GraphPad Prism4 software relative to DMSO.

HDAC2 = HDAC2 (Homo sapiens, UniProt Q92769); test: HDAC enzyme inhibitory activity, FRET method; assay type: biochemical; details: read-out: IC50 HDAC2
Experimental: as §1, §2

HDAC3 = HDAC3 (Homo sapiens, UniProt O15379); test: HDAC enzyme inhibitory activity, FRET method; assay type: biochemical; details: read-out: IC50 HDAC3
[1] = Stability in liver microsomes; assay type: in vitro ADME; details: for half-life at 1 µM: 1 µM compound, 37 °C, NADPH regeneration system
Experimental: After the 1 µM compound was individually incubated at 37 °C for various durations with […] liver microsomes from humans, monkeys, beagles, rats, or mice in the presence of an NADPH regeneration system, LC-MS-MS was used to analyze the remaining amount of the compound, and T1/2 was calculated. Table 10. Evaluation results of stability of compounds of the present disclosure in human and mouse liver microsomes

Chain of HDAC1 (Q13547 whole entry, species assumed): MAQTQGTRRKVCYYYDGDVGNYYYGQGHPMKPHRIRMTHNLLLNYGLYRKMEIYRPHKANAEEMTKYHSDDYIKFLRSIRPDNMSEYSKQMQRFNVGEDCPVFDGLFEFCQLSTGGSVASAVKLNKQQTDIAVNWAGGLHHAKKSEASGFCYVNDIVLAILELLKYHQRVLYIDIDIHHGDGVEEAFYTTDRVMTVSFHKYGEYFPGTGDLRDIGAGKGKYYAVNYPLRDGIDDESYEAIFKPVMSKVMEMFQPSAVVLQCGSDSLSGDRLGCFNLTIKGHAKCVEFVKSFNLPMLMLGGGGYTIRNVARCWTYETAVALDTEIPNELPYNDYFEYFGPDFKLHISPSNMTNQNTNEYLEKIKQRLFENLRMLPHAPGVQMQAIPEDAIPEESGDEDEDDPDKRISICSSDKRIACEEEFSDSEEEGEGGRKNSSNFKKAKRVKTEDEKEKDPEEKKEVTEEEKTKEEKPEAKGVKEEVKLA
Chain of HDAC3 (O15379 whole entry, species assumed): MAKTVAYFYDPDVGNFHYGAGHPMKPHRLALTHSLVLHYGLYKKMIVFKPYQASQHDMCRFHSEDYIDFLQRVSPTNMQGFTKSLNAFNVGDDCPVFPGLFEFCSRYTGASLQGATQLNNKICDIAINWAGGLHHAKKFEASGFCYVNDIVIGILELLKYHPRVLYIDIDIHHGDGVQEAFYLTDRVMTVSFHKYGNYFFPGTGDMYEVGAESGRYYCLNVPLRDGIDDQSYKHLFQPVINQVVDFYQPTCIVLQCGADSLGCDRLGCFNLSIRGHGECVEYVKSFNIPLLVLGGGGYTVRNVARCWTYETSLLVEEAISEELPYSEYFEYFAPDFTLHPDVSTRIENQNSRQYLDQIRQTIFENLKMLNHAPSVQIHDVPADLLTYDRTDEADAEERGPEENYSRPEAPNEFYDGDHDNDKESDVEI
Chain of HDAC3 (Q9Y618 395-489 partner limits assumed, species assumed): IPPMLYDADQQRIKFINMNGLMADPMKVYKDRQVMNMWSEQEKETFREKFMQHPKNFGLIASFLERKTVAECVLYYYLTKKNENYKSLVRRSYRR
Chain of HDAC2 (Q92769 whole entry, species assumed): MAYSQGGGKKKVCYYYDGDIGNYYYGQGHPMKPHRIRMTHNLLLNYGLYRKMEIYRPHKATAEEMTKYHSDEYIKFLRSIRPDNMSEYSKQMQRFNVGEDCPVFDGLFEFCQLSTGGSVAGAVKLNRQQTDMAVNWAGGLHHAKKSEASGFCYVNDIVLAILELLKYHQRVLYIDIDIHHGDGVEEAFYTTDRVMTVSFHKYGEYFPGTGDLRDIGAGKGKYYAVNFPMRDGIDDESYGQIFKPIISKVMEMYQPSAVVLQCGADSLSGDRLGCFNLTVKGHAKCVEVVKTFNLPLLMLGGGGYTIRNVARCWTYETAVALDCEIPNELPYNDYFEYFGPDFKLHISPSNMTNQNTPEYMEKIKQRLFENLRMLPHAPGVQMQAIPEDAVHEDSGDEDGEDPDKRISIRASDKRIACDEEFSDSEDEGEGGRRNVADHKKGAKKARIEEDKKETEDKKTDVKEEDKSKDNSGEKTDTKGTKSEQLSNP

| Compound | IC50 (HDAC1; Table 4) [nM] | IC50 (HDAC2; Table 4) [nM] | IC50 (HDAC3; Table 4) [nM] | also measured |
| --- | --- | --- | --- | --- |
| CS(C)(=O)=Nc1ccc(C(=O)Nc2cc(-c3ccccc3)ccc2N)cc1 [Compound 2] | < 500 | < 500 | > 5000 | – |
| CS(C)(=O)=Nc1ccc(C(=O)Nc2cc(-c3ccc(Cl)cc3)ccc2N)cc1 [Compound 3] | < 500 | < 500 | > 5000 | CLint scaled at 1 µM ([1]; Human liver microsomes): 1.85 mL/min/kg; Clliver ([1]; Human liver microsomes): 1.70 mL/min/kg; half-life at 1 µM ([1]; Human liver microsomes): 15.7 h; CLint scaled at 1 µM ([1]; Mouse liver microsomes): 17.8 mL/min/kg; Clliver ([1]; Mouse liver microsomes): 14.87 mL/min/kg; half-life at 1 µM ([1]; Mouse liver microsomes): 5.11 h; IC50 (HDAC1; Table 5): < 30 nM; IC50 (HDAC2; Table 5): 30 to 300 nM; IC50 (HDAC3; Table 5): > 3000 nM |
| CS(C)(=O)=Nc1ccc(C(=O)Nc2cc(-c3ccc(C#N)cc3)ccc2N)cc1 [Compound 4] | < 500 | < 500 | > 5000 | – |
| COC(=O)c1ccc(-c2ccc(N)c(NC(=O)c3ccc(N=S(C)(C)=O)cc3)c2)cc1 [Compound 5] | < 500 | 500 to 5000 | > 5000 | – |
| CP(C)(=O)c1ccc(-c2ccc(N)c(NC(=O)c3ccc(N=S(C)(C)=O)cc3)c2)cc1 [Compound 6] | 500 to 5000 | 500 to 5000 | > 5000 | – |
| CS(C)(=O)=Nc1ccc(C(=O)Nc2cc(-c3ccc(C(F)(F)F)cc3)ccc2N)cc1 [Compound 7] | < 500 | < 500 | > 5000 | – |
| CS(C)(=O)=Nc1ccc(C(=O)Nc2cc(-c3ccc(C4CC4)cc3)ccc2N)cc1 [Compound 8] | 500 to 5000 | 500 to 5000 | > 5000 | – |
| COc1ccc(-c2ccc(N)c(NC(=O)c3ccc(N=S(C)(C)=O)cc3)c2)cc1 [Compound 9] | < 500 | < 500 | > 5000 | – |
| CS(C)(=O)=Nc1ccc(C(=O)Nc2cc(-c3ccc(F)cc3F)ccc2N)cc1 [Compound 10] | < 500 | < 500 | > 5000 | – |
| CNC(=O)c1ccc(-c2ccc(N)c(NC(=O)c3ccc(N=S(C)(C)=O)cc3)c2)cc1 [Compound 11] | < 500 | < 500 | > 5000 | – |
| [2H]c1ccc(-c2ccc(N)c(NC(=O)c3ccc(N=S(C)(C)=O)cc3)c2)cc1 [Compound 12] | < 500 | < 500 | > 5000 | – |
| CS(C)(=O)=Nc1ccc(C(=O)Nc2cc(-c3ccncc3)ccc2N)cc1 [Compound 13] | < 500 | < 500 | > 5000 | – |
| CS(C)(=O)=Nc1ccc(C(=O)Nc2cc(-c3ccccn3)ccc2N)cc1 [Compound 14] | < 500 | < 500 | > 5000 | – |
| CS(C)(=O)=Nc1ccc(C(=O)Nc2cc(-c3cccnc3)ccc2N)cc1 [Compound 15] | < 500 | < 500 | > 5000 | – |
| CS(C)(=O)=Nc1ccc(C(=O)Nc2cc(-c3ccncn3)ccc2N)cc1 [Compound 16] | < 500 | < 500 | > 5000 | – |
| CS(C)(=O)=Nc1ccc(C(=O)Nc2cc(-c3cncnc3)ccc2N)cc1 [Compound 17] | < 500 | < 500 | > 5000 | – |
| CS(C)(=O)=Nc1ccc(C(=O)Nc2cc(-c3ncccn3)ccc2N)cc1 [Compound 18] | < 500 | < 500 | > 5000 | – |
| CS(C)(=O)=Nc1ccc(C(=O)Nc2cc(-c3ccc(F)cn3)ccc2N)cc1 [Compound 19] | < 500 | < 500 | > 5000 | – |
| CS(C)(=O)=Nc1ccc(C(=O)Nc2cc(-c3ccco3)ccc2N)cc1 [Compound 20] | < 500 | < 500 | > 5000 | – |
| CS(C)(=O)=Nc1ccc(C(=O)Nc2cc(-c3ccc(F)cc3)ccc2O)cc1 [Compound 41] | < 500 | 500 to 5000 | > 5000 | – |
| CS(C)(=O)=Nc1ccc(C(=O)Nc2cc(-c3ccc(F)s3)ccc2O)cc1 [Compound 42] | < 500 | < 500 | > 5000 | – |
| CS(C)(=O)=Nc1ccc(C(=O)Nc2cc(-c3ccc(F)cc3)c(F)cc2N)cc1 [Compound 43] | < 500 | < 500 | > 5000 | – |
| CS(C)(=O)=Nc1ccc(C(=O)Nc2cc(-c3cccs3)c(F)cc2N)cc1 [Compound 44] | < 500 | < 500 | > 5000 | – |
| CS(C)(=O)=NC1CCC(C(=O)Nc2cc(-c3ccc(F)cc3)ccc2N)CC1 (stereo not drawn) [Compound 45] | < 500 | < 500 | > 5000 | – |
| CS(C)(=O)=NC1CCC(C(=O)Nc2cc(-c3ccc(F)s3)ccc2N)CC1 (stereo not drawn) [Compound 47] | < 500 | < 500 | > 5000 | – |
